Assay results as given in patent US11319299B2, “Substituted carboxamides as inhibitors of WDR5 protein-protein binding” (PROPELLON THERAPEUTICS INC., priority 2016, dated 2022).

Molecular target: WDR5 (Homo sapiens (Human), UniProt P61964)
Assay: Surface Plasmon Resonance (SPR) assay, KD and residence time
Assay type: binding
Settings: surface plasmon resonance (SPR); read-out: WDR5 binding affinity (KD)

Structure (SMILES) | Kd [nM]
C[C@@H]1CN(c2cc(F)c(-c3ccsc3)cc2NC(=O)c2c[nH]c(=O)cc2C(F)(F)F)C[C@H](C)N1C [Example 493, N-[4-fluoro-2-[(3R,5S)-3,4,5-trimethylpiperazin-1-yl]-5-thiophen-3-ylphenyl]-6-oxo-4-(trifluoromethyl)-1H-pyridine-3-carboxamide] | 2.86
C[C@@H]1CN(c2cc(F)c(-c3csc(CN4CCOCC4)c3)cc2NC(=O)c2c[nH]c(=O)cc2C(F)(F)F)C[C@H](C)N1C [Example 494, N-[4-fluoro-5-[5-(morpholin-4-ylmethyl)thiophen-3-yl]-2-[(3R,5S)-3,4,5-trimethylpiperazin-1-yl]phenyl]-6-oxo-4-(trifluoromethyl)-1H-pyridine-3-carboxamide] | 3.01
C[C@@H]1CN(c2cc(F)c(-c3ncc(C(=O)NCC4CC4)s3)cc2NC(=O)c2c[nH]c(=O)cc2C(F)(F)F)C[C@H](C)N1C [Example 496, N-(cyclopropylmethyl)-2-[2-fluoro-5-[[6-oxo-4-(trifluoromethyl)-1H-pyridine-3-carbonyl]amino]-4-[(3R,5S)-3,4,5-trimethylpiperazin-1-yl]phenyl]-1,3-thiazole-5-carboxamide] | 3.03
C[C@@H]1CN(c2cc(F)c(-c3ncc(C(=O)N(C)C4CCCCC4)s3)cc2NC(=O)c2c[nH]c(=O)cc2C(F)(F)F)C[C@H](C)N1C [Example 499, N-cyclohexyl-2-[2-fluoro-5-[[6-oxo-4-(trifluoromethyl)-1H-pyridine-3-carbonyl]amino]-4-[(3R,5S)-3,4,5-trimethylpiperazin-1-yl]phenyl]-N-methyl-1,3-thiazole-5-carboxamide] | 3.4
C[C@@H]1CN(c2cc(F)c(-c3ncc(C(=O)N4CCN(C)CC4)s3)cc2NC(=O)c2c[nH]c(=O)cc2C(F)(F)F)C[C@H](C)N1C [Example 501, N-[4-fluoro-5-[5-(4-methylpiperazine-1-carbonyl)-1,3-thiazol-2-yl]-2-[(3R,5S)-3,4,5-trimethylpiperazin-1-yl]phenyl]-6-oxo-4-(trifluoromethyl)-1H-pyridine-3-carboxamide] | 3.44
COc1cc(C(F)(F)F)c(C(=O)Nc2cc(-c3cnc(N4CCOCC4)nc3)c(F)cc2N2C[C@@H](C)N(C)[C@@H](C)C2)cn1 [Example 506, N-[4-fluoro-5-(2-morpholin-4-ylpyrimidin-5-yl)-2-[(3R,5S)-3,4,5-trimethylpiperazin-1-yl]phenyl]-6-methoxy-4-(trifluoromethyl)pyridine-3-carboxamide] | 354
C[C@@H]1CN(c2ccc(-c3cc(NC(=O)c4cn(C)c(=O)cc4C(F)F)c(N4CCN(C)[C@@H](C)C4)cc3F)cn2)C[C@H](C)O1 [Example 515, 4-(difluoromethyl)-N-[4-fluoro-5-[6-[(2R,6S)-2,6-dimethylmorpholin-4-yl]pyridin-3-yl]-2-[(3S)-3,4-dimethylpiperazin-1-yl]phenyl]-1-methyl-6-oxopyridine-3-carboxamide] | 4.09
C[C@@H]1CN(c2ccc(-c3cc(NC(=O)c4cn(C)c(=O)cc4C(F)F)c(N4CCN(C)[C@@H](C)C4)cc3F)cn2)CCO1 [Example 516, 4-(difluoromethyl)-N-[4-fluoro-2-[(3S)-3,4-dimethylpiperazin-1-yl]-5-[6-[(2R)-2-methylmorpholin-4-yl]pyridin-3-yl]phenyl]-1-methyl-6-oxopyridine-3-carboxamide] | 4
C[C@@H]1CN(c2cc(F)c(-c3csc(C(=O)NCC4CC4)n3)cc2NC(=O)c2cn(C)c(=O)cc2C(F)(F)F)C[C@H](C)N1C [Example 523, N-(cyclopropylmethyl)-4-[2-fluoro-5-[[1-methyl-6-oxo-4-(trifluoromethyl)pyridine-3-carbonyl]amino]-4-[(3R,5S)-3,4,5-trimethylpiperazin-1-yl]phenyl]-1,3-thiazole-2-carboxamide] | 4.59
C[C@@H]1CN(c2cc(F)c(-c3csc(C(=O)N(C)CC4CC4)n3)cc2NC(=O)c2cn(C)c(=O)cc2C(F)(F)F)C[C@H](C)N1C [Example 524, N-(cyclopropylmethyl)-4-[2-fluoro-5-[[-methyl-6-oxo-4-(trifluoromethyl)pyridine-3-carbonyl]amino]-4-[(3R,5S)-3,4,5-trimethylpiperazin-1-yl]phenyl]-N-methyl-1,3-thiazole-2-carboxamide] | 5.03
C[C@@H]1CN(c2cc(F)c(-c3csc(C(=O)NC4CCCCC4)n3)cc2NC(=O)c2cn(C)c(=O)cc2C(F)(F)F)C[C@H](C)N1C [Example 525, N-cyclohexyl-4-[2-fluoro-5-[[1-methyl-6-oxo-4-(trifluoromethyl)pyridine-3-carbonyl]amino]-4-[(3R,5S)-3,4,5-trimethylpiperazin-1-yl]phenyl]-1,3-thiazole-2-carboxamide] | 5.42
C[C@@H]1CN(c2cc(F)c(-c3csc(C(=O)N(C)C4CCCCC4)n3)cc2NC(=O)c2cn(C)c(=O)cc2C(F)(F)F)C[C@H](C)N1C [Example 526, N-cyclohexyl-4-[2-fluoro-5-[[1-methyl-6-oxo-4-(trifluoromethyl)pyridine-3-carbonyl]amino]-4-[(3R,5S)-3,4,5-trimethylpiperazin-1-yl]phenyl]-N-methyl-1,3-thiazole-2-carboxamide] | 4.89
C[C@@H]1CN(c2cc(F)c(-c3csc(C(=O)N4CCOCC4)n3)cc2NC(=O)c2cn(C)c(=O)cc2C(F)(F)F)C[C@H](C)N1C [Example 527, N-[4-fluoro-5-[2-(morpholine-4-carbonyl)-1,3-thiazol-4-yl]-2-[(3R,5S)-3,4,5-trimethylpiperazin-1-yl]phenyl]-1-methyl-6-oxo-4-(trifluoromethyl)pyridine-3-carboxamide] | 5.66
C[C@@H]1CN(c2cc(F)c(-c3csc(C(=O)N4CCN(C)CC4)n3)cc2NC(=O)c2cn(C)c(=O)cc2C(F)(F)F)C[C@H](C)N1C [Example 528, N-[4-fluoro-5-[2-(4-methylpiperazine-1-carbonyl)-1,3-thiazol-4-yl]-2-[(3R,5S)-3,4,5-trimethylpiperazin-1-yl]phenyl]-1-methyl-6-oxo-4-(trifluoromethyl)pyridine-3-carboxamide] | 4.05

Molecules with a lower Kd, results first:

Kd [nM] | Structure (SMILES)
2.59 | C[C@@H]1CN(c2cc(F)c(-c3ncc(C(=O)N(C)CC4CC4)s3)cc2NC(=O)c2c[nH]c(=O)cc2C(F)(F)F)C[C@H](C)N1C [Example 497, N-(cyclopropylmethyl)-2-[2-fluoro-5-[[6-oxo-4-(trifluoromethyl)-1H-pyridine-3-carbonyl]amino]-4-[(3R,5S)-3,4,5-trimethylpiperazin-1-yl]phenyl]-N-methyl-1,3-thiazole-5-carboxamide]
2.44 | C[C@@H]1CN(c2cc(F)c(C3=CCN(c4ccc(C5CC5)nn4)CC3)cc2NC(=O)c2c[nH]c(=O)cc2C(F)(F)F)C[C@H](C)N1C [Example 503, N-[5-[1-(6-cyclopropylpyridazin-3-yl)-3,6-dihydro-2H-pyridin-4-yl]-4-fluoro-2-[(3R,5S)-3,4,5-trimethylpiperazin-1-yl]phenyl]-6-oxo-4-(trifluoromethyl)-1H-pyridine-3-carboxamide]
2.44 | CCc1ccc(N2CC=C(c3cc(NC(=O)c4c[nH]c(=O)cc4C(F)(F)F)c(N4C[C@@H](C)N(C)[C@@H](C)C4)cc3F)CC2)nn1 [Example 504, N-[5-[1-(6-ethylpyridazin-3-yl)-3,6-dihydro-2H-pyridin-4-yl]-4-fluoro-2-[(3R,5S)-3,4,5-trimethylpiperazin-1-yl]phenyl]-6-oxo-4-(trifluoromethyl)-1H-pyridine-3-carboxamide]
1.85 | C[C@@H]1CN(c2cc(F)c(-c3ncc(C(=O)N4CCOCC4)s3)cc2NC(=O)c2c[nH]c(=O)cc2C(F)(F)F)C[C@H](C)N1C [Example 500, N-[4-fluoro-5-[5-(morpholine-4-carbonyl)-1,3-thiazol-2-yl]-2-[(3R,5S)-3,4,5-trimethylpiperazin-1-yl]phenyl]-6-oxo-4-(trifluoromethyl)-1H-pyridine-3-carboxamide]
1.47 | C[C@@H]1CN(c2cc(F)c(-c3ncc(C(=O)NC4CCCCC4)s3)cc2NC(=O)c2c[nH]c(=O)cc2C(F)(F)F)C[C@H](C)N1C [Example 498, N-cyclohexyl-2-[2-fluoro-5-[[6-oxo-4-(trifluoromethyl)-1H-pyridine-3-carbonyl]amino]-4-[(3R,5S)-3,4,5-trimethylpiperazin-1-yl]phenyl]-1,3-thiazole-5-carboxamide]
1.15 | C[C@@H]1CN(c2cc(F)c(-c3cnc(N4CCOCC4)nc3)cc2NC(=O)c2cc(N)c(F)cc2C(F)(F)F)C[C@H](C)N1C [Example 502, 5-amino-4-fluoro-N-[4-fluoro-5-(2-morpholin-4-ylpyrimidin-5-yl)-2-[(3R,5S)-3,4,5-trimethylpiperazin-1-yl]phenyl]-2-(trifluoromethyl)benzamide]
1.06 | C[C@@H]1CN(c2cc(F)c(-c3csc(C(=O)NCC4CC4)n3)cc2NC(=O)c2c[nH]c(=O)cc2C(F)(F)F)C[C@H](C)N1C [Example 531, N-(cyclopropylmethyl)-4-[2-fluoro-5-[[6-oxo-4-(trifluoromethyl)-1H-pyridine-3-carbonyl]amino]-4-[(3R,5S)-3,4,5-trimethylpiperazin-1-yl]phenyl]-1,3-thiazole-2-carboxamide]
0.959 | C[C@@H]1CN(c2ccc(-c3cc(NC(=O)c4c[nH]c(=O)cc4C(F)F)c(N4CCN(C)[C@@H](C)C4)cc3F)cn2)C[C@H](C)O1 [Example 514, 4-(difluoromethyl)-N-[4-fluoro-5-[6-[(2R,6S)-2,6-dimethylmorpholin-4-yl]pyridin-3-yl]-2-[(3S)-3,4-dimethylpiperazin-1-yl]phenyl]-6-oxo-1H-pyridine-3-carboxamide]
0.947 | C[C@@H]1CN(c2ccc(-c3cc(NC(=O)c4c[nH]c(=O)cc4C(F)F)c(N4CCN(C)[C@@H](C)C4)cc3F)cn2)CCO1 [Example 509, 4-(difluoromethyl)-N-[4-fluoro-2-[(3S)-3,4-dimethylpiperazin-1-yl]-5-[6-[(2R)-2-methylmorpholin-4-yl]pyridin-3-yl]phenyl]-6-oxo-1H-pyridine-3-carboxamide]
0.779 | C[C@@H]1CN(c2ccc(-c3cc(NC(=O)c4c[nH]c(=O)cc4C(F)F)c(N4C[C@@H](C)N(C)[C@@H](C)C4)cc3F)cn2)C[C@H](C)O1 [Example 511, 4-(difluoromethyl)-N-[4-fluoro-5-[6-[(2R,6S)-2,6-dimethylmorpholin-4-yl]pyridin-3-yl]-2-[(3R,5S)-3,4,5-trimethylpiperazin-1-yl]phenyl]-6-oxo-1H-pyridine-3-carboxamide]
